Measurements from US6355799B1, “Substituted benzene compounds, process for their preparation, and herbicidal and defoliant compositions containing them” (ISK Americas Incorporated, priority 1997, dated 2002).

Key:
Type in all cases: in vivo
[1] = tested on: velvetleaf (Abutilon theophrasti, ABUTH); assay: Pre-emerge test, greenhouse herbicide activity screening; conditions: for Pre-emerge Herbicidal Activity ABUTH: phytotoxicity rating 0-100, 14 days after application; for phytotoxicity rating ABUTH: pre-emerge, 14 days after application, scale 0-100
Procedure, shortened: (§1)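 Sandy loam pots; pre-emerge: sown 1 d pre-spray, surface-watered after, then bottom-watered. Post-emerge: sown 8–21 d before, 2–3 leaf stage, + 0.25% v/v NIS, bottom-watered. Acetone, 187 l/ha track spray, 15–1000 g ai/ha. 0–100 injury score, day 14.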

[2] = tested on: johnsongrass (Sorghum halepense, SORHA); assay: as above; conditions: for Pre-emerge Herbicidal Activity SORHA: phytotoxicity rating 0-100, 14 days after application; for phytotoxicity rating SORHA: pre-emerge, 14 days after application, scale 0-100
Procedure, shortened: as §1

[3] = tested on: green foxtail (Setaria viridis, SETVI); assay: as above; conditions: for Pre-emerge Herbicidal Activity SETVI: phytotoxicity rating 0-100, 14 days after application; for phytotoxicity rating SETVI: pre-emerge, 14 days after application, scale 0-100
Procedure, shortened: as §1

[4] = tested on: lambsquarters (Chenopodium album, CHEAL); assay: as above; conditions: for Pre-emerge Herbicidal Activity CHEAL: phytotoxicity rating 0-100, 14 days after application; for phytotoxicity rating CHEAL: pre-emerge, 14 days after application, scale 0-100
Procedure, shortened: as §1

[5] = tested on: large crabgrass (Digitaria sanguinalis, DIGSA); assay: as above; conditions: for Pre-emerge Herbicidal Activity DIGSA: phytotoxicity rating 0-100, 14 days after application; for phytotoxicity rating DIGSA: pre-emerge, 14 days after application, scale 0-100
Procedure, shortened: as §1

[6] = tested on: ivyleaf morningglory (Ipomoea hederacea, IPOHE); assay: as above; conditions: for Pre-emerge Herbicidal Activity IPOHE: phytotoxicity rating 0-100, 14 days after application; for phytotoxicity rating IPOHE: pre-emerge, 14 days after application, scale 0-100
Procedure, shortened: as §1

[7] = tested on: sicklepod (Cassia obtusifolia, CASOB); assay: as above; conditions: for Pre-emerge Herbicidal Activity CASOB: phytotoxicity rating 0-100, 14 days after application; for phytotoxicity rating CASOB: pre-emerge, 14 days after application, scale 0-100
Procedure, shortened: as §1

[8] = tested on: barnyardgrass (Echinochloa crus-galli, ECHCG); assay: as above; conditions: for Pre-emerge Herbicidal Activity ECHCG: phytotoxicity rating 0-100, 14 days after application; for phytotoxicity rating ECHCG: pre-emerge, 14 days after application, scale 0-100
Procedure, shortened: as §1

[9] = tested on: upland rice (Oryza sp., var. Tebonnet, RICE); assay: Post-emerge test, crop safety; conditions: post-emerge, 14 days after application, rating scale 0-100
Procedure, shortened: as §1

[10] = tested on: field corn (Zea mays L., var. Dekalb 535, CORN); assay: Post-emerge test, crop safety; conditions: post-emerge, 14 days after application, rating scale 0-100
Procedure, shortened: as §1

[11] = tested on: redroot pigweed (Amaranthus retroflexus, AMARE); assay: Pre-emerge test, greenhouse herbicide activity screening; conditions: for Pre-emerge Herbicidal Activity AMARE: phytotoxicity rating 0-100, 14 days after application; for phytotoxicity rating AMARE: pre-emerge, 14 days after application, scale 0-100
Procedure, shortened: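 Herbicidal damage is scored 0 (none) to 100 (complete plant death) two weeks after a simulated field spray. Rates span 15–1000 g ai/ha, delivered in acetone at 187 l/ha. For post-emergence treatments, plants have 2–3 leaves and the spray carries 0.25% v/v non-ionic surfactant.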

[12] = tested on: upland rice (Oryza sp., var. Tebonnet, RICE); assay: Pre-emerge test, crop safety; conditions: for Pre-emerge Herbicidal Activity RICE: crop damage rating 0-100, 14 days after application; for phytotoxicity rating RICE (crop damage): pre-emerge, 14 days after application, scale 0-100
Procedure, shortened: (§2)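 Visual ratings on a 0-100 scale (0 no damage, 100 all plants dead) were taken at 14 days after treatment. Rates of 15-1000 g ai/ha in acetone, 187 l/ha, were sprayed onto soil one day after planting (pre-emerge) or onto 2-3 leaf plants with 0.25% v/v surfactant (post-emerge).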

[13] = tested on: field corn (Zea mays L., var. Dekalb 535, CORN); assay: Pre-emerge test, crop safety; conditions: for Pre-emerge Herbicidal Activity CORN: crop damage rating 0-100, 14 days after application; for phytotoxicity rating CORN (crop damage): pre-emerge, 14 days after application, scale 0-100
Procedure, shortened: as §2

[14] = tested on: velvetleaf (Abutilon theophrasti, ABUTH); assay: Post-emerge test, greenhouse herbicide activity screening; conditions: post-emerge, 14 days after application, rating scale 0-100
Procedure, shortened: (§3)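 Each test used a mechanized track sprayer delivering 187 l/ha of acetone solution at 15–1000 g ai/ha. Post-emerge foliage at 2–3 leaves was treated with added 0.25% v/v non-ionic surfactant and bottom-watered only. Injury was assessed on day 14, where 100 means total kill.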

[15] = tested on: johnsongrass (Sorghum halepense, SORHA); assay: as above; conditions: post-emerge, 14 days after application, rating scale 0-100
Procedure, shortened: as §3

[16] = tested on: green foxtail (Setaria viridis, SETVI); assay: as above; conditions: post-emerge, 14 days after application, rating scale 0-100
Procedure, shortened: as §3

[17] = tested on: lambsquarters (Chenopodium album, CHEAL); assay: as above; conditions: post-emerge, 14 days after application, rating scale 0-100
Procedure, shortened: as §3

[18] = tested on: large crabgrass (Digitaria sanguinalis, DIGSA); assay: as above; conditions: post-emerge, 14 days after application, rating scale 0-100
Procedure, shortened: as §3

[19] = tested on: redroot pigweed (Amaranthus retroflexus, AMARE); assay: as above; conditions: post-emerge, 14 days after application
Procedure, shortened: as §3

[20] = tested on: ivyleaf morningglory (Ipomoea hederacea, IPOHE); assay: as above; conditions: post-emerge, 14 days after application, rating scale 0-100
Procedure, shortened: as §3

[21] = tested on: sicklepod (Cassia obtusifolia, CASOB); assay: as above; conditions: post-emerge, 14 days after application, rating scale 0-100
Procedure, shortened: as §3

[22] = tested on: barnyardgrass (Echinochloa crus-galli, ECHCG); assay: as above; conditions: post-emerge, 14 days after application, rating scale 0-100
Procedure, shortened: as §3

[23] = 250 g ai/ha, rating scale 0-100

Cc1ccc(OC(=O)Nc2c(C)c(Cl)cc(F)c2-n2c(=O)cc(C(F)(F)F)n(C)c2=O)cc1C [4-53]
Pre-emerge Herbicidal Activity ABUTH ([1]; 63 g ai/ha): 100 | Pre-emerge Herbicidal Activity ABUTH ([1]; 250 g ai/ha): 100 | Pre-emerge Herbicidal Activity SORHA ([2]; 63 g ai/ha): 30 | Pre-emerge Herbicidal Activity SORHA ([2]; 250 g ai/ha): 85 | Pre-emerge Herbicidal Activity SETVI ([3]; 63 g ai/ha): 80 | Pre-emerge Herbicidal Activity SETVI ([3]; 250 g ai/ha): 100 | Pre-emerge Herbicidal Activity CHEAL ([4]; 63 g ai/ha): 100 | Pre-emerge Herbicidal Activity CHEAL ([4]; 250 g ai/ha): 100 | Pre-emerge Herbicidal Activity DIGSA ([5]; 63 g ai/ha): 40 | Pre-emerge Herbicidal Activity DIGSA ([5]; 250 g ai/ha): 100 | Pre-emerge Herbicidal Activity IPOHE ([6]; 63 g ai/ha): 30 | Pre-emerge Herbicidal Activity IPOHE ([6]; 250 g ai/ha): 80 | Pre-emerge Herbicidal Activity CASOB ([7]; 63 g ai/ha): 20 | Pre-emerge Herbicidal Activity CASOB ([7]; 250 g ai/ha): 60 | Pre-emerge Herbicidal Activity ECHCG ([8]; 63 g ai/ha): 10 | Pre-emerge Herbicidal Activity ECHCG ([8]; 250 g ai/ha): 85 | phytotoxicity rating RICE (crop damage) ([9]; 63 g ai/ha): 30 | phytotoxicity rating RICE (crop damage) ([9]; 250 g ai/ha): 65 | phytotoxicity rating CORN (crop damage) ([10]; 63 g ai/ha): 5 | phytotoxicity rating CORN (crop damage) ([10]; 250 g ai/ha): 70 | Pre-emerge Herbicidal Activity AMARE ([11]; 63 g ai/ha): 100 | Pre-emerge Herbicidal Activity AMARE ([11]; 250 g ai/ha): 100 | Pre-emerge Herbicidal Activity RICE ([12]; 63 g ai/ha): 10 | Pre-emerge Herbicidal Activity RICE ([12]; 250 g ai/ha): 50 | Pre-emerge Herbicidal Activity CORN ([13]; 63 g ai/ha): 0 | Pre-emerge Herbicidal Activity CORN ([13]; 250 g ai/ha): 25 | phytotoxicity rating ABUTH ([14]; 63 g ai/ha): 100 | phytotoxicity rating ABUTH ([14]; 250 g ai/ha): 100 | phytotoxicity rating SORHA ([15]; 63 g ai/ha): 0 | phytotoxicity rating SORHA ([15]; 250 g ai/ha): 40 | phytotoxicity rating SETVI ([16]; 63 g ai/ha): 10 | phytotoxicity rating SETVI ([16]; 250 g ai/ha): 70 | phytotoxicity rating CHEAL ([17]; 63 g ai/ha): 60 | phytotoxicity rating CHEAL ([17]; 250 g ai/ha): 90 | phytotoxicity rating DIGSA ([18]; 63 g ai/ha): 0 | phytotoxicity rating DIGSA ([18]; 250 g ai/ha): 40 | phytotoxicity rating AMARE ([19]; 63 g ai/ha, rating scale 0-100 (0 no damage, 100 complete death)): 70 | phytotoxicity rating AMARE [19, 23]: 100 | phytotoxicity rating IPOHE ([20]; 63 g ai/ha): 100 | phytotoxicity rating IPOHE ([20]; 250 g ai/ha): 100 | phytotoxicity rating CASOB ([21]; 63 g ai/ha): 30 | phytotoxicity rating CASOB ([21]; 250 g ai/ha): 90 | phytotoxicity rating ECHCG ([22]; 63 g ai/ha): 0 | phytotoxicity rating ECHCG ([22]; 250 g ai/ha): 60

COc1c(Br)cc(F)c(-n2c(=O)cc(C(F)(F)F)n(C)c2=O)c1NC(=O)C=Cc1ccccc1 [2-177]
phytotoxicity rating ABUTH ([1]; 63 g ai/ha): 70 | phytotoxicity rating ABUTH ([1]; 250 g ai/ha): 100 | phytotoxicity rating SORHA ([2]; 63 g ai/ha): 0 | phytotoxicity rating SORHA ([2]; 250 g ai/ha): 30 | phytotoxicity rating SETVI ([3]; 63 g ai/ha): 40 | phytotoxicity rating SETVI ([3]; 250 g ai/ha): 70 | phytotoxicity rating CHEAL ([4]; 63 g ai/ha): 100 | phytotoxicity rating CHEAL ([4]; 250 g ai/ha): 100 | phytotoxicity rating DIGSA ([5]; 63 g ai/ha): 30 | phytotoxicity rating DIGSA ([5]; 250 g ai/ha): 70 | phytotoxicity rating IPOHE ([6]; 63 g ai/ha): 40 | phytotoxicity rating IPOHE ([6]; 250 g ai/ha): 90 | phytotoxicity rating CASOB ([7]; 63 g ai/ha): 0 | phytotoxicity rating CASOB ([7]; 250 g ai/ha): 40 | phytotoxicity rating ECHCG ([8]; 63 g ai/ha): 0 | phytotoxicity rating ECHCG ([8]; 250 g ai/ha): 40 | RICE phytotoxicity rating (crop damage) ([9]; 63 g ai/ha): 50 | RICE phytotoxicity rating (crop damage) ([9]; 250 g ai/ha): 60 | CORN phytotoxicity rating (crop damage) ([10]; 63 g ai/ha): 15 | CORN phytotoxicity rating (crop damage) ([10]; 250 g ai/ha): 20 | phytotoxicity rating AMARE ([11]; 63 g ai/ha): 100 | phytotoxicity rating AMARE ([11]; 250 g ai/ha): 100 | phytotoxicity rating RICE (crop damage) ([12]; 63 g ai/ha): 10 | phytotoxicity rating RICE (crop damage) ([12]; 250 g ai/ha): 20 | phytotoxicity rating CORN (crop damage) ([13]; 63 g ai/ha): 0 | phytotoxicity rating CORN (crop damage) ([13]; 250 g ai/ha): 10 | ABUTH phytotoxicity rating ([14]; 63 g ai/ha): 100 | ABUTH phytotoxicity rating ([14]; 250 g ai/ha): 100 | SORHA phytotoxicity rating ([15]; 63 g ai/ha): 30 | SORHA phytotoxicity rating ([15]; 250 g ai/ha): 40 | SETVI phytotoxicity rating ([16]; 63 g ai/ha): 45 | SETVI phytotoxicity rating ([16]; 250 g ai/ha): 60 | CHEAL phytotoxicity rating ([17]; 63 g ai/ha): 100 | CHEAL phytotoxicity rating ([17]; 250 g ai/ha): 100 | DIGSA phytotoxicity rating ([18]; 63 g ai/ha): 30 | DIGSA phytotoxicity rating ([18]; 250 g ai/ha): 50 | AMARE phytotoxicity rating ([19]; 63 g ai/ha, rating scale 0-100): 100 | AMARE phytotoxicity rating [19, 23]: 100 | IPOHE phytotoxicity rating ([20]; 63 g ai/ha): 100 | IPOHE phytotoxicity rating ([20]; 250 g ai/ha): 100 | CASOB phytotoxicity rating ([21]; 63 g ai/ha): 100 | CASOB phytotoxicity rating ([21]; 250 g ai/ha): 100 | ECHCG phytotoxicity rating ([22]; 63 g ai/ha): 20 | ECHCG phytotoxicity rating ([22]; 250 g ai/ha): 40
